# System: RSV Long strain
# Test: Viral cytopathic effect (CPE) assay, anti-RSV activity
# Type: cell-based, Respiratory Syncytial Virus
# Conditions: RSV Long strain (ATCC), cell viability after 6 days, Cell Counting kit-8
# In short: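 Cells (6×10^3/well, DMEM with 10% FBS) were infected next day with RSV Long strain, at a dose giving approximately 80–90% CPE, alongside serial half-log compound dilutions. Viability was read after 6 days by CCK-8 absorbance at 450 nm (reference 630 nm), and EC50 was derived from it.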
# [1] = human respiratory syncytial virus, 144 h
SMILES,EC50 [µM],EC50 [1] [µM]
"Cc1ccc2nc(N3CC[S+]([O-])c4ccccc4C3)cc(NCC3(N)COC3)c2c1 (centres unmarked) [Example 18-1, N-[(3-Aminooxetan-3-yl)methyl]-6-methyl-2-(1-oxido-2,3-dihydro-1,4-benzothiazepin-4(5H)-yl)quinolin-4-amine]",0.003,–
"Cc1ccc2nc(N3CCS(=O)(=O)c4ccccc4C3)cc(NC3CCCC(N)C3)c2c1 (centres unmarked) [Example 3-16, N-[2-(1,1-Dioxido-2,3-dihydro-1,4-benzothiazepin-4(5H)-yl)-6-methylquinolin-4-yl]-cyclohexane-1,3-diamine]",–,0.075
"Cc1ccc2nc(N3CCS(=O)(=O)c4ccccc4C3)cc(NC3COC3)c2c1 [Example 3-47, 2-(1,1-Dioxido-2,3-dihydro-1,4-benzothiazepin-4(5H)-yl)-6-methyl-N-(oxetan-3-yl)quinolin-4-amine]",–,0.101
"Cc1ccc2nc(N3CCS(=O)(=O)c4ccccc4C3)cc(NC[C@@H]3COC(N)=N3)c2c1 [Example 38-3, N-{[(4R)-2-Amino-4,5-dihydro-1,3-oxazol-4-yl]methyl}-2-(1,1-dioxido-2,3-dihydro-1,4-benzothiazepin-4(5H)-yl)-6-methylquinolin-4-amine]",–,0.074
"Cc1ccc2nc(N3CCS(=O)(=O)c4ccccc4C3)cc(NCCCCCCN)c2c1 [Example 3-56, N-[2-(1,1-Dioxido-2,3-dihydro-1,4-benzothiazepin-4(5H)-yl)-6-methylquinolin-4-yl]hexane-1,6-diamine]",–,0.716
"Cc1ccc2nc(N3CCS(=O)(=O)c4ccccc4C3)cc(NCC(F)CN)c2c1 (centres unmarked) [Example 3-21, N-[2-(1,1-Dioxido-2,3-dihydro-1,4-benzothiazepin-4(5H)-yl)-6-methylquinolin-4-yl]-2-fluoropropane-1,3-diamine]",–,0.006
"Cc1ccc2nc(N3CCS(=O)(=O)c4ccccc4C3)cc(C)c2c1 [Example 99, 4-(4,6-Dimethylquinolin-2-yl)-2,3,4,5-tetrahydro-1,4-benzothiazepine 1,1-dioxide]",–,3
"Cc1ccc2nc(N3CCS(=O)(=O)c4ccccc4C3)cc(NCCNCC(F)F)c2c1 [Example 5-11, N-(2,2-Difluoroethyl)-N′-[2-(1,1-dioxido-2,3-dihydro-1,4-benzothiazepin-4(5H)-yl)-6-methylquinolin-4-yl]ethane-1,2-diamine]",–,0.526
"NC1(CNc2nc(N3CCSc4ccccc4C3)nc3ccccc23)COC1 [Example 57-1, N-[(3-Aminooxetan-3-yl)methyl]-2-(2,3-dihydro-1,4-benzothiazepin-4(5H)-yl)quinazolin-4-amine]",–,0.067
"CNCCNc1cc(N2CCS(=O)(=O)c3ccccc3C2)nc2ccc(C)cc12 [Example 3-31, N-[2-(1,1-Dioxido-2,3-dihydro-1,4-benzothiazepin-4(5H)-yl)-6-methylquinolin-4-yl]-N′-methylethane-1,2-diamine]",–,0.014
"Cc1ccc2nc(N3CCS(=O)(=O)c4ccccc4C3)cc(NC(=O)C3CCNCC3)c2c1 [Example 3-62, N-[2-(1,1-Dioxido-2,3-dihydro-1,4-benzothiazepin-4(5H)-yl)-6-methylquinolin-4-yl]piperidine-4-carboxamide]",–,0.589
"Cc1ccc2nc(N3CCS(=O)(=O)c4ccccc4C3)cc(NCC3CCCN3)c2c1 (centres unmarked) [Example 3-35, 2-(1,1-Dioxido-2,3-dihydro-1,4-benzothiazepin-4(5H)-yl)-6-methyl-N-(pyrrolidin-2-ylmethyl)quinolin-4-amine]",–,0.013
"Cc1ccc2nc(N3CCS(=O)(=O)c4ccccc4C3)cc(NCCCNC3COC3)c2c1 [Example 45-1, N-[2-(1,1-Dioxido-2,3-dihydro-1,4-benzothiazepin-4(5H)-yl)-6-methylquinolin-4-yl]-N′-(oxetan-3-yl)propane-1,3-diamine]",–,0.021
"Cc1ccc2nc(N3CCS(=O)(=O)c4ccccc4C3)cc(NC3CNCC34COC4)c2c1 (centres unmarked) [Example 2-6, 2-(1,1-Dioxido-2,3-dihydro-1,4-benzothiazepin-4(5H)-yl)-6-methyl-N-(2-oxa-6-azaspiro[3.4]oct-8-yl)quinolin-4-amine]",–,0.021
"Cc1cccc2c(NCCCCCCCCCN)cc(N3CCS(=O)(=O)c4ccccc4C3)nc12 [Example 12-3, N-[2-(1,1-Dioxido-2,3-dihydro-1,4-benzothiazepin-4(5H)-yl)-8-methylquinolin-4-yl]nonane-1,9-diamine]",–,6.26
"Cc1ccc2nc(N3CCS(=O)(=O)c4ccccc4C3)cc(N3C[C@H](O)CC3=O)c2c1 [Example 47-1, (4R)-1-[2-(1,1-Dioxido-2,3-dihydro-1,4-benzothiazepin-4(5H)-yl)-6-methylquinolin-4-yl]-4-hydroxypyrrolidin-2-one]",–,7.88
"Cc1ccc2nc(N3CCS(=O)(=O)c4ccccc4C3)cc(N3CCC(C)(O)C3)c2c1 (centres unmarked) [Example 3-45, 1-[2-(1,1-Dioxido-2,3-dihydro-1,4-benzothiazepin-4(5H)-yl)-6-methylquinolin-4-yl]-3-methylpyrrolidin-3-ol]",–,5.23
"Cc1ccc2nc(N3CCS(=O)(=O)c4ccccc4C3)cc(NCCN)c2c1 [Example 9-16, N-[2-(1,1-Dioxido-2,3-dihydro-1,4-benzothiazepin-4(5H)-yl)-6-methylquinolin-4-yl]ethane-1,2-diamine]",–,0.005
"N[C@@H]1CN(c2cc(N3CCS(=O)(=O)c4ccccc4C3)nc3ccc(Cl)cc23)C[C@H]1F (relative stereo) [Example 19-5, trans-1-[6-Chloro-2-(1,1-dioxido-2,3-dihydro-1,4-benzothiazepin-4(5H)-yl)quinolin-4-yl]-4-fluoropyrrolidin-3-amine]",–,3.07
"Cc1ccc2nc(N3CCS(=O)(=O)c4ccccc4C3)cc(NCCCCCCCCCO)c2c1 [Example 12-6, 9-{[2-(1,1-Dioxido-2,3-dihydro-1,4-benzothiazepin-4(5H)-yl)-6-methylquinolin-4-yl]amino}nonan-1-ol]",–,9.21
"Cc1ccc2nc(N3CCS(=O)(=O)c4ccccc4C3)cc(NCCCN)c2c1 [Example 9-3, N-[2-(1,1-Dioxido-2,3-dihydro-1,4-benzothiazepin-4(5H)-yl)-6-methylquinolin-4-yl]propane-1,3-diamine]",–,0.001
"Cc1ccc2nc(N3CCS(=O)(=O)c4ccccc4C3)cc(NCCN3CCS(=O)(=O)CC3)c2c1 [Example 5-1, 2-(1,1-Dioxido-2,3-dihydro-1,4-benzothiazepin-4(5H)-yl)-N-[2-(1,1-dioxidothiomorpholin-4-yl)ethyl]-6-methylquinolin-4-amine]",–,9.2
"Cc1ccc2nc(N3CCS(=O)(=O)c4ccccc4C3)nc(NCCC(F)CN)c2c1 (centres unmarked) [Example 62-4, N^˜4^˜-[2-(1,1-Dioxido-2,3-dihydro-1,4-benzothiazepin-4(5H)-yl)-6-methylquinazolin-4-yl]-2-fluorobutane-1,4-diamine]",0.019,–
"Cc1ccc2nc(N3CCS(=O)(=O)c4ccccc4C3)cc(NC3CCNC3)c2c1 (centres unmarked) [Example 21-4, 2-(1,1-Dioxido-2,3-dihydro-1,4-benzothiazepin-4(5H)-yl)-6-methyl-N-(pyrrolidin-3-yl)quinolin-4-amine]",–,0.004

# The next lines start with the values.
EC50 [µM],EC50 [1] [µM],SMILES
–,8.58,"Cc1ccc2nc(N3CCS(=O)(=O)c4ccccc4C3)cc(-c3cc[nH]n3)c2c1 [Example 101, 4-[6-Methyl-4-(1H-pyrazol-3-yl)quinolin-2-yl]-2,3,4,5-tetrahydro-1,4-benzothiazepine 1,1-dioxide]"
–,3.68,"Cc1ccc2nc(N3CCC(F)(F)c4ccccc4C3)cc(N3CCN(C)CC3)c2c1 [Example 110-13, 5,5-Difluoro-2-[6-methyl-4-(4-methylpiperazin-1-yl)quinolin-2-yl]-2,3,4,5-tetrahydro-1H-2-benzazepine]"
–,7.62,"NCCNc1cc(N2CCCc3ccc(C(=O)O)cc3C2)nc2ccccc12 [Example 118-25, 2-{4-[(2-Aminoethyl)amino]quinolin-2-yl}-2,3,4,5-tetrahydro-1H-2-benzazepine-8-carboxylic acid]"
–,7.27,"OCC(O)Cc1cc(N2CCCc3ccccc3C2)nc2ccc(Cl)cc12 (centres unmarked) [Example 130-2, 3-[6-Chloro-2-(1,3,4,5-tetrahydro-2H-2-benzazepin-2-yl)quinolin-4-yl]propane-1,2-diol]"
–,2.52,"NC1=N[C@@H](CCc2cc(N3CCCc4ccccc4C3)nc3ccccc23)CO1 [Example 131, (4S)-4-{2-[2-(1,3,4,5-Tetrahydro-2H-2-benzazepin-2-yl)quinolin-4-yl]ethyl}-4,5-dihydro-1,3-oxazol-2-amine]"
–,0.06,"Cc1ccc2nc(N3CCC(F)(F)c4ccccc4C3)cc(NCC(O)CN)c2c1 (centres unmarked) [Example 110-4, 1-Amino-3-{[2-(5,5-difluoro-1,3,4,5-tetrahydro-2H-2-benzazepin-2-yl)-6-methylquinolin-4-yl]amino}propan-2-ol]"
–,1.24,"NCCNc1cc(N2CCCc3ccccc3C2)nc2ccc(C(F)(F)F)cc12 [Example 118-19, N-[2-(1,3,4,5-Tetrahydro-2H-2-benzazepin-2-yl)-6-(trifluoromethyl)quinolin-4-yl]ethane-1,2-diamine]"
–,0.202,"NCCNc1cc(N2CCCc3ccccc3C2)nc2ccccc12 [Example 118-9, N-[2-(1,3,4,5-Tetrahydro-2H-2-benzazepin-2-yl)quinolin-4-yl]ethane-1,2-diamine]"
–,0.0015,"NCC1(CNc2nc(N3CCS(=O)(=O)c4ccccc4C3)nc3ccc(CO)cc23)COC1 [Example 109-2, [4-({[3-(Aminomethyl)oxetan-3-yl]methyl}amino)-2-(1,1-dioxido-2,3-dihydro-1,4-benzothiazepin-4(5H)-yl)quinazolin-6-yl]methanol]"
–,1.38,"NCCNc1cc(N2CCCc3ccccc3C2)nc2ccc(F)cc12 [Example 118-21, N-[6-Fluoro-2-(1,3,4,5-tetrahydro-2H-2-benzazepin-2-yl)quinolin-4-yl]ethane-1,2-diamine]"
–,0.806,"COc1ccc2c(c1)CN(c1cc(NCCN)c3ccccc3n1)CCC2 [Example 118-17, N-[2-(8-Methoxy-1,3,4,5-tetrahydro-2H-2-benzazepin-2-yl)quinolin-4-yl]ethane-1,2-diamine]"

# — patent US8871756B2 (Hoffmann-La Roche Inc., priority 2011, dated 2014)
